For five compounds, EC50, IC50 and AC50 results are on record in ChEMBL document CHEMBL1201862, “PubChem BioAssay data set” (2004).

Assay [1] can be described thus: alpha-synuclein stem-loop luciferase translation blockers – H4 neuroglioma cells, luminescence, confirmation (AID 1988). It counts as functional, cell-based.
Assay [2] in a line: Counterscreen for AddAB inhibitors: absorbance-based bacterial cell-based high throughput dose response assay for inhibitors of bacterial viability. [Related pubchem assays (depositor defined):AID435030, AID449728, AID449731, AID488942, AID488955, AID488956]. In kind it is functional. (The purpose of a counterscreen is to sort out artefacts and off-target activity.)
In assay [3] the target is T1, RNA-binding protein pos-1 (Caenorhabditis elegans, UniProt G5EF15).
T1 sequence (G5EF15 whole entry): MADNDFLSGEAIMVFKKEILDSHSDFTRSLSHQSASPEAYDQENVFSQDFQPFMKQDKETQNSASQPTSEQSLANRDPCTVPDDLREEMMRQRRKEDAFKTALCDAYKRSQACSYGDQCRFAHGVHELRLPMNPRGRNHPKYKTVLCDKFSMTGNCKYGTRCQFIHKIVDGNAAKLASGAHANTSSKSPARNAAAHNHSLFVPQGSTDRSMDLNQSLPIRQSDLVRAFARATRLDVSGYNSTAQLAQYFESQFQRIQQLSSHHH
Briefly: disruptors of C. elegans POS-1 RNA interaction – biochemical, fluorescence polarization, dose response (AID 1964).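 Also: purified POS-1 fused to maltose binding protein made in E. coli; potency of compounds blocking POS-1 binding to fluorescent RNA.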

Assay [4] has as its target T2, Dual specificity protein phosphatase 6 (Rattus norvegicus, UniProt Q64346).
T2 sequence (Q64346 whole entry): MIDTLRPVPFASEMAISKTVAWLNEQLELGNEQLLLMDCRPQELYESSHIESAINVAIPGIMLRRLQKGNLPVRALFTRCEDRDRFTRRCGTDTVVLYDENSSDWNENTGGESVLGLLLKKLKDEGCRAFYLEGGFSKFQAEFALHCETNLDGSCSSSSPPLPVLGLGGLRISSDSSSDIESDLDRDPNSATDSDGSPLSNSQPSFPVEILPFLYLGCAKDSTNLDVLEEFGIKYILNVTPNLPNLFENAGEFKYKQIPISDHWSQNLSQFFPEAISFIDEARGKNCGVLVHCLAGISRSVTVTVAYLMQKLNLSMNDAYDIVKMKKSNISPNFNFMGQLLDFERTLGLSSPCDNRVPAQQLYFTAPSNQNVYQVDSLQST
Briefly: inhibition of rat DUSP6 enzyme activity – biochemical, in vitro, primary screen (AID 425).

Assay [5] deals with Large T antigen (Simian virus 40, UniProt P03070). It counts as functional, Betapolyomavirus macacae.
Sequence of Large T antigen (P03070 whole entry): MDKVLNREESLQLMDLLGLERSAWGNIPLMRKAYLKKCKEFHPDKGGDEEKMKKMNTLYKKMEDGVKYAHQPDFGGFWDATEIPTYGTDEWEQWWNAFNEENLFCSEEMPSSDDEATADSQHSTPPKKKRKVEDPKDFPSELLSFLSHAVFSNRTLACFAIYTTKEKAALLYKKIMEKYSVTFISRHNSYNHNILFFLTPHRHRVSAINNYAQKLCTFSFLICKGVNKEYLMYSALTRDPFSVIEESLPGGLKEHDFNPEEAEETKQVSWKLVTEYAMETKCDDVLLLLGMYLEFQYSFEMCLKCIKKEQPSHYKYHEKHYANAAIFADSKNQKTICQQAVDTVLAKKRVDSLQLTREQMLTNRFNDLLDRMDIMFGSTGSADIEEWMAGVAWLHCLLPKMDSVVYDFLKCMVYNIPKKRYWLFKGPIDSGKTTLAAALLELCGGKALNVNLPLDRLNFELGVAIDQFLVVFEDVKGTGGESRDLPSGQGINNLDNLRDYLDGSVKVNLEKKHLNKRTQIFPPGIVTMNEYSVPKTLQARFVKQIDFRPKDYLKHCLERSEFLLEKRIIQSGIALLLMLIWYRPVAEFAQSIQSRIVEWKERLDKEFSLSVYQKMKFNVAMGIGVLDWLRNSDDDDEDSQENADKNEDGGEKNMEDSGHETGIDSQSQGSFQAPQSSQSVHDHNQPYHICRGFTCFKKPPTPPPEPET
The target in assay [6] is NAD-dependent protein deacylase sirtuin-5, mitochondrial (Homo sapiens, UniProt Q9NXA8). Briefly: sirtuin-5 deacylation blockers, concentration series – biochemical, fluorescence imaging, cherry-pick, set 5, dose response (AID 720591).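 Also: desuccinylation of succinyl peptide AMC substrate read as fluorescence after trypsin release; potency of inhibitors that lower fluorescence and may act on trypsin instead.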
Sequence of NAD-dependent protein deacylase sirtuin-5, mitochondrial (Q9NXA8 whole entry): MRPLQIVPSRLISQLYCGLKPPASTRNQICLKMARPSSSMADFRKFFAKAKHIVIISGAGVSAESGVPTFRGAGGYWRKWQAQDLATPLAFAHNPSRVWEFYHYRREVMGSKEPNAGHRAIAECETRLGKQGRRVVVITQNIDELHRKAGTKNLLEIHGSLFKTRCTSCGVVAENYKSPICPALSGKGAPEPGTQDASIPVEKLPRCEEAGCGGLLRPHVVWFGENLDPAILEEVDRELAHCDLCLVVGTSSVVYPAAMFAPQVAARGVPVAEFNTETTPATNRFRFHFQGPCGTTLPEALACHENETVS
Assay [7] deals with Keap1/Nrf2 (Homo sapiens, UniProt Q14145). The experiment in a line: disruptors of Keap1 binding to Nrf2 peptide – biochemical, fluorescence polarization, cherry-picked samples, dose response (AID 588683). In general terms: Polarisation of emitted light reports the rotation of a fluorescent probe.
Sequence of Keap1/Nrf2 (Q16236 whole entry): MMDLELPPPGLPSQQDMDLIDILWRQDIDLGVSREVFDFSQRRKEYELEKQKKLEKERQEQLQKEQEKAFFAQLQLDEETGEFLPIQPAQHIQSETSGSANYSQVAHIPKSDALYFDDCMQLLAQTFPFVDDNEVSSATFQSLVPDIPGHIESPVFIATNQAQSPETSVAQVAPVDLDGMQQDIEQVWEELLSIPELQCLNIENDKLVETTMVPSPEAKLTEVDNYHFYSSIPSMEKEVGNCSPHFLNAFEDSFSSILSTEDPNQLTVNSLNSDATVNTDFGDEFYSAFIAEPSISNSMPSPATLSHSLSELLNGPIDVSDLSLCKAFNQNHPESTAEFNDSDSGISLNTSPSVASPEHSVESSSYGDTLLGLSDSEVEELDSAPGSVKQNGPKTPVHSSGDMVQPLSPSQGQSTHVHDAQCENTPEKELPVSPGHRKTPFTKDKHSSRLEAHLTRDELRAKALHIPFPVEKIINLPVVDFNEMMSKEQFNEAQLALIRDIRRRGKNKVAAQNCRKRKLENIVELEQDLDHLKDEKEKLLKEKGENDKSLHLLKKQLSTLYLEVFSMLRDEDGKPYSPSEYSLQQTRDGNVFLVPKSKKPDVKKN
Sequence of Keap1/Nrf2 (Q14145 whole entry): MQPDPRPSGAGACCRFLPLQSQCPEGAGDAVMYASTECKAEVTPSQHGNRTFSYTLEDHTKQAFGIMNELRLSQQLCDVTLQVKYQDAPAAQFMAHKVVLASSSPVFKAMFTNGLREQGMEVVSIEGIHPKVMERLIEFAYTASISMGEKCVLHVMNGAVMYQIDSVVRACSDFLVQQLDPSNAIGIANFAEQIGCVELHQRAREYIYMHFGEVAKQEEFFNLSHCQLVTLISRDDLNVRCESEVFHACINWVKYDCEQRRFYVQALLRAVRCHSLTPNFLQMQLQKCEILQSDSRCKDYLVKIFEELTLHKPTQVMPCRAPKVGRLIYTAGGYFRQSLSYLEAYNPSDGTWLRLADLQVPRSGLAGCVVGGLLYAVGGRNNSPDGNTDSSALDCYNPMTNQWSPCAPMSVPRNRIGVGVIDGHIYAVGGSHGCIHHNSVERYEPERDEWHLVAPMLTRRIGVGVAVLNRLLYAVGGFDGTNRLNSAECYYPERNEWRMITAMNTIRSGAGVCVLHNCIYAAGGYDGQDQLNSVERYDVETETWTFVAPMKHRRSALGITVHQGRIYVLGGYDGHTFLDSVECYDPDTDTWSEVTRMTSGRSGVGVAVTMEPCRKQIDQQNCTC
Assay [8] has as its target T3, Dual specificity protein phosphatase 3 (Homo sapiens, UniProt P51452). The experiment in a line: VHR1 phosphatase inhibitors, biochemical (AID 1878).
Assay [9] concerns the target T3, Dual specificity protein phosphatase 3. Briefly: SAR VHR1 Fluorescent Assay for In Vitro dose response studies. [Related pubchem assays (depositor defined):AID1654, AID1661, AID1878, AID1992, AID2004, AID2070, AID2085]. In kind it is functional.
For assay [10], the target named is Intestinal-type alkaline phosphatase (Homo sapiens, UniProt P09923). Briefly: activation of human intestinal alkaline phosphatase – biochemical, dose response (AID 488873). In kind it is functional.
Sequence of Intestinal-type alkaline phosphatase (P09923 whole entry): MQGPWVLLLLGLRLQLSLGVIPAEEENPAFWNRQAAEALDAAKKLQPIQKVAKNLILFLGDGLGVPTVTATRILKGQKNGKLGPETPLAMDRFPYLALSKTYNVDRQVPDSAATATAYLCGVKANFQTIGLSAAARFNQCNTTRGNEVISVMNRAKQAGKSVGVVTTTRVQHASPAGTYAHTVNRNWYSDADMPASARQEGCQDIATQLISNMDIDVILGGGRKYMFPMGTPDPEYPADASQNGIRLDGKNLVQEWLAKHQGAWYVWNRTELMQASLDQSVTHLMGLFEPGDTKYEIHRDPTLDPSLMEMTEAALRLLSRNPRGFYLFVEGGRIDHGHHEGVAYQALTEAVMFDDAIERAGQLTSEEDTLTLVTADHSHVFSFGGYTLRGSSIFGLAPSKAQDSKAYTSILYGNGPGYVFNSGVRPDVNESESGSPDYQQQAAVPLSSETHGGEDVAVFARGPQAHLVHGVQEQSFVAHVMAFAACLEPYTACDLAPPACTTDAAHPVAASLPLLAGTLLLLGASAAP
Assay [11] addresses 72 kDa type IV collagenase (Homo sapiens, UniProt P08253). Briefly: Dose Response validation of uHTS RPN11 inhibitor hits using a MMP-2 Fluorescence assay. In kind it is functional.
Assay [12] addresses T4, Hexokinase HKDC1 (Homo sapiens, UniProt Q2TB90).
T4 sequence (Q2TB90 whole entry): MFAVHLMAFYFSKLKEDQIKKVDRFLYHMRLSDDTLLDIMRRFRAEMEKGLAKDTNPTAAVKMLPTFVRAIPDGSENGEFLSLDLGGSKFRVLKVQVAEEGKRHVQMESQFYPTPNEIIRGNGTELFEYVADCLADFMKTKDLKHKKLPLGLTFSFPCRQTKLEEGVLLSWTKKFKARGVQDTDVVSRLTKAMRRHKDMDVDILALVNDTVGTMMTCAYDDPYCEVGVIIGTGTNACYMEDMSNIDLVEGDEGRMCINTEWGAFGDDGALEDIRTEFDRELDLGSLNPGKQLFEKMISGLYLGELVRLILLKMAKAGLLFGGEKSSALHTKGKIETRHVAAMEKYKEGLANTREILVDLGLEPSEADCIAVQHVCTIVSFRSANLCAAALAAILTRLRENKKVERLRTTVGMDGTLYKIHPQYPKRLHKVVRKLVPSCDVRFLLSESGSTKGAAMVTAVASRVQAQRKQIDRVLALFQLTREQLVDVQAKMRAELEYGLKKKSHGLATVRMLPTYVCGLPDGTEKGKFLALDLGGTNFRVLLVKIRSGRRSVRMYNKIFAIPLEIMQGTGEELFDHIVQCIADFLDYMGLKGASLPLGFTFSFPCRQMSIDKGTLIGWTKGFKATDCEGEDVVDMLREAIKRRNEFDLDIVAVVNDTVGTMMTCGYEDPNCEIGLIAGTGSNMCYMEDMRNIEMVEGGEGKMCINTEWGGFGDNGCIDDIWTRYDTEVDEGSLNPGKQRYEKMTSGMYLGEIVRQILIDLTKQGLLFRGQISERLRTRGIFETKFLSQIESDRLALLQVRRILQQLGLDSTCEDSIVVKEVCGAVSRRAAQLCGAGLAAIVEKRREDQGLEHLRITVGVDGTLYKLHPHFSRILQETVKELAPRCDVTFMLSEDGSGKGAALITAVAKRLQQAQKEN
Briefly: inhibition of HKDC1 glucose phosphorylation – biochemical, W721R variant, dose response (AID 504729). In kind it is functional.

For assay [13], the target named is 1-phosphatidylinositol 4,5-bisphosphate phosphodiesterase beta-3 (Homo sapiens, UniProt Q01970). The experiment in a line: Fluorescence-based biochemical high throughput dose response assay to identify inhibitors of phospholipase C isozymes (PLC-B3).
The target in assay [14] is 1-phosphatidylinositol 4,5-bisphosphate phosphodiesterase gamma-1 (Homo sapiens, UniProt P19174). The experiment in a line: Counterscreen for inhibitors of phospholipase C isozymes (PLC-B3): Fluorescence-based biochemical high throughput dose response assay to identify inhibitors of phospholipase C isozymes (PLC-gamma1).
Sequence of 1-phosphatidylinositol 4,5-bisphosphate phosphodiesterase gamma-1 (P19174 whole entry): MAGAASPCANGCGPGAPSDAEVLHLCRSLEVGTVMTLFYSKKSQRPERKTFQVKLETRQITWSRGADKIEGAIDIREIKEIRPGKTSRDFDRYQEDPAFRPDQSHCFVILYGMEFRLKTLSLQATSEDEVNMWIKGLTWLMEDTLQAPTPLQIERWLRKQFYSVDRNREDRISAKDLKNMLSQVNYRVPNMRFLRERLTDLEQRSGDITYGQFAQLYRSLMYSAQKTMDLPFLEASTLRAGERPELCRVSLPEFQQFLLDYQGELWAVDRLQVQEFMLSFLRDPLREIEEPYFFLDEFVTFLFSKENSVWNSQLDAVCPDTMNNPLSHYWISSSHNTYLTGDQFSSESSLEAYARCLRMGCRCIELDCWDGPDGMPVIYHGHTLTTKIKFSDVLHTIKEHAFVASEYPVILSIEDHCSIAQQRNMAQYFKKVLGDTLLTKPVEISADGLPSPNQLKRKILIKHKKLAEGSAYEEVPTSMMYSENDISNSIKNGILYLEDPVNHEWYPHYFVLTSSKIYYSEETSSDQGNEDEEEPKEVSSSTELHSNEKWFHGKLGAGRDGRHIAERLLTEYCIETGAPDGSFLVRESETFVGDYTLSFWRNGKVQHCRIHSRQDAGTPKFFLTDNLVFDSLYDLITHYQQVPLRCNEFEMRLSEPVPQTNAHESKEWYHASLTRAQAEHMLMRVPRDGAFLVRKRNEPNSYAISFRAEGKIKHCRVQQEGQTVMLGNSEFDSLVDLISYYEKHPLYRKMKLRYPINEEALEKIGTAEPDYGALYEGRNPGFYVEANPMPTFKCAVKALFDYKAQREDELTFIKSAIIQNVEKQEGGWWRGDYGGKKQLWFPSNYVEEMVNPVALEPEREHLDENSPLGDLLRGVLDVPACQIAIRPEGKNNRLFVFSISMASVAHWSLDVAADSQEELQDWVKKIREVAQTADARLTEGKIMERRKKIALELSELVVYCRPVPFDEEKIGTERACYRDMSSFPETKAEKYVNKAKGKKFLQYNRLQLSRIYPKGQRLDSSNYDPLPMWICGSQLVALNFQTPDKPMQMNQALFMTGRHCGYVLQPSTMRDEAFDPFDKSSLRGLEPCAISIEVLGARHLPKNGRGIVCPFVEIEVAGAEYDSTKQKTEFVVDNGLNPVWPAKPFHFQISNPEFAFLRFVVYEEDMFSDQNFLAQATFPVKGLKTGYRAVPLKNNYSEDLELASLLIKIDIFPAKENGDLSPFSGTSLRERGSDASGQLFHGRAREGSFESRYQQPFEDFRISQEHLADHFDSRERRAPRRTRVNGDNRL
Assay [15] addresses Photoreceptor-specific nuclear receptor (Homo sapiens, UniProt Q9Y5X4). It counts as functional.
The target in assay [16] is Serine/threonine-protein phosphatase (Homo sapiens, UniProt Q9BPW0). Briefly: inhibition of protein phosphatase 5 activity – biochemical, fluorescence, dose response (AID 2395).

The source made the active and inactive calls.

T3 sequence (P51452 whole entry): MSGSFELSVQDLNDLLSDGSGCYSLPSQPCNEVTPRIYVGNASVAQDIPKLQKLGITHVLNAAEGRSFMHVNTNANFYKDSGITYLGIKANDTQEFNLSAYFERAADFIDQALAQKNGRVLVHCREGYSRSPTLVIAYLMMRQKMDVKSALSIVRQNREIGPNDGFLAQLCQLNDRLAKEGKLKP
Sequence of Photoreceptor-specific nuclear receptor (Q9Y5X4 whole entry): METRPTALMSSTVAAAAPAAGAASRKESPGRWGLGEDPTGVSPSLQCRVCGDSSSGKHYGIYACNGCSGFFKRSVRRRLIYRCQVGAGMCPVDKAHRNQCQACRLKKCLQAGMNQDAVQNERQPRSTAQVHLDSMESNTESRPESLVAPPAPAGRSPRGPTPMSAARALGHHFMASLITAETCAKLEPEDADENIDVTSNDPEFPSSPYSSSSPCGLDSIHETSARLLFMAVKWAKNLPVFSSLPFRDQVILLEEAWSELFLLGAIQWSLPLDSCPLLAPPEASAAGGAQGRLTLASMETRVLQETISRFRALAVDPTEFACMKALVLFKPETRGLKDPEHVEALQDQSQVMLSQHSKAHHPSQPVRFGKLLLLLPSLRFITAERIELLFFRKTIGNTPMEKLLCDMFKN

As to `O=C1c2ccccc2C(=O)c2[nH]c(O)nc21`, the results for the EC50 in assay [1] and in assay [3] were 4.26 µM (active) and 28.9 µM (active), respectively. For the same compound, the IC50 in assay [2] is > 119 µM (inactive).

Regarding `N#Cc1c(N2CCCC2)nc(N)c2c(N)nc(N3CCCC3)cc12`, the IC50 in assay [4] is 1.05 µM (active).

In the case of `NS(=O)(=O)c1cc(C(=O)NC2CCSc3ccccc32)ccc1Cl` (stereo not drawn), the IC50 in assay [5] was 62.1 µM (active); in [4], > 158 µM (not active); in [8], < 1.23 µM (inactive); in assay [9], 0.065 µM (active); in assay [11], 2.68 µM (active). Further, the AC50 in [6] is 6.65 µM (active); in assay [7], > 52 µM (inactive). The results for the EC50 in assay [3] and in [10] were 13.4 µM (inconclusive) and 49.4 µM (active), respectively.

Consider `COC(=O)c1cc(C)nc2c1C(=O)C(=O)C=C2N1CCOCC1`, for which the IC50 was 4.41 µM (active) in [12], > 123 µM (inactive) in assay [13], 13.7 µM (inactive) in assay [14] and > 39.8 µM (not active) in assay [15].

For the compound `CCOC(=O)C1=C(C)OC2(O)c3ccccc3C(=O)C12O` (stereo not drawn), the IC50 in assay [16] is given as > 67 µM (not active).

The term EC50 denotes the concentration needed to bring the measured effect to its halfway point. As usually defined, the IC50 is the concentration needed to halve the response being measured. One may read the AC50 as the concentration at which the activity in the assay is half-maximal.
